The nature of series [1]: Ocular, retinal delivery of GGA by eye drop compared to systemic (PO) delivery, AUC (Example 21). The following applies: for Kp(eye ball) / Kp(retina): 180 mg/kg PO. The class given is in vivo.
Series [2] concerns HSP70. As to the kind of experiment: HSP70 analysis by ELISA in rat eyes after eye drops (Example 17, Cohort 2). The class given is in vivo. Conditions: for Ratio: compound treated/vehicle treated, Average (AVE): HSP70, average of 4 rats; for Left (compound treated) AVE: HSP70, average of the left-eye values of Table 3 (pg/ml there); for Ratio treated eye/vehicle treated eye: HSP70, individual rat, left (compound) vs right (vehicle) eye; for HSP70: individual rat, compound-treated left eye, 5% eye drop 0.25 mg/eye per dose hourly, harvest time not stated. The method, then: (§1) In Cohort 2 the efficacy of Formulation 102 was tested against Formulation 101 and vehicle controls at different time points.
Cohort 2: HSP70 analysis for ELISA only
(§2) • Route: topical eye drop formulation • Frequency: 4 or 8 doses, every 1 hour • Dose Administration : under isofluorane anesthesia (2.5%) • Dose Volume: 5 μL in each eye
(§3) • Species: Rat • Strain: Sprague-Dawley • Supplier: Harlan • Sex: Male • Weight at Initiation: 200 to 220 g • Number of Animals: 12 for Cohort 1, 26 for Cohort 2

Series [3] in a line: Rat ocular pharmacokinetics: GGA concentration in eye balls after topical eye drops (LC-MS/MS). The class given is in vivo. The following applies: for Mean of Duplicate / R/L: per rat; for Concentration: single determination; for R/L: ratio of right to left eye concentration. The method, then:
as §1, §2, §3
Eye drops were applied every hour either for 4 hours or for 8 hours. Animals were euthanized 4 hours and 8 hours after the first dosing, and the eye balls collected on dry ice. Eyes were homogenized with a polytron homogenizer in ethanol. GGA was quantified in the eye ball lysates by liquid chromatography-tandem mass spectroscopy.

The subject of series [4] is HSP70. As to the kind of experiment: HSP70 induction in eye balls by eye drops, ELISA normalized by total protein (Example 18). The class given is in vivo, Rat. The method, then:
Eye drops were applied every hour either for 4 hours or for 8 hours. Animals were euthanized 4 hours, 8 hours or 24 hours after the first dosing, and the eye balls collected on ice. Eyes were homogenized with a polytron homogenizer in a standard lysis buffer containing proteinase inhibitors. HSP70 was quantified by a commercially available ELISA kit and normalized by total protein concentration in the sample.

Series [5] can be described thus: Intraocular GGA levels, topical ocular 5% GGA versus 200 mg/kg oral. The class given is in vivo. The following applies: topical ocular composition of 5% GGA vs 200 mg/kg GGA orally. From the text:
The level achieved thereby into the ocular tissue was many-folds more, for example, about 5 times more than that achieved by systemic delivery by oral administration. […] Such is even more unexpected in view of the eye being a immunprotected organ which is predisposed to impede compounds from getting into the ocular tissue and to remove any compound entered into it.

[6] abbreviates: contralateral eye, 8 doses, group average of Table 7 means (ng/g there), in ng/g.
[7] abbreviates: left (treated) eye, 4 doses, harvest 4 h.
Where [8] appears, read: left (treated) eye, 8 doses, harvest 8 h.
Setting [9] is: left (treated) eye, 4 hourly doses 0.25 mg/eye, harvest 4 h.
The mark [10] stands for this setting: left (treated) eye, 8 hourly doses 0.25 mg/eye, harvest 8 h.
Setting [11] is: right (contralateral) eye, 4 doses, harvest 4 h.
The mark [12] stands for this setting: right (contralateral) eye, 8 doses, harvest 8 h.
Where [13] appears, read: treated eye, 8 doses, group average of Table 7 means (ng/g there), in ng/g.

SMILES strings stand for the structures. Where “and” joins values, the source holds several entries; their conditions need not be identical. Equal entries are not always repeated. Where two headings read alike, the source gives them in different places.

As for `CC(=O)CCC=C(C)CC/C=C(\C)CC/C=C(\C)CCC=C(C)C` (mixture of isomers) [CNS-101, cis-trans geranylgeranyl acetone], the “Kp(eye ball)” value in series [1] was 0.71. In addition, in series [1], the “Kp(retina)” value was found to be 2.21. In addition, the “Ratio: compound treated/vehicle treated, Average (AVE)” value with HSP70 [2] came out at 1.665. The “Left (compound treated) AVE” value with HSP70 [2] came out at 952.4506. For the same compound, the “Ratio treated eye/vehicle treated eye” value with HSP70 [2] was 1.003 and 2.135 and 1.544 and 1.976. In the series with HSP70 [2], the HSP70 was 589.4561 pg/mL and 1023.901 pg/mL and 1211.234 pg/mL and 985.2114 pg/mL. In addition, the “contra/ipsi AVE” value in series [3] (4 doses, 4 h) was determined as 0.349; in series [3] (8 doses, 8 h), 0.1718. For the same compound, the “4 h contra AVE” value in series [3] (contralateral eye, 4 doses, group average of Table 7 means (ng/g there), in ng/g) is given as 5856.333. Besides, the “8 h contra AVE” value in series [3] (setting [6]) is listed as 2986.667. The “Mean of Duplicate” value in series [3] (setting [7]) was 14722 ng/g and 15163 ng/g and 19992 ng/g; in series [3] (setting [8]), 18546 ng/g and 13199 ng/g and 18795.5 ng/g; in series [3] (setting [11]), 6414.5 ng/g and 3355 ng/g and 7799.5 ng/g; in series [3] (setting [12]), 3701 ng/g and 1596 ng/g and 3663 ng/g. The “Concentration” value in series [3] (setting [9]) was 14635 ng/g and 14809 ng/g and 15206 ng/g and 15120 ng/g and 19608 ng/g and 20376 ng/g; in series [3] (setting [10]) it was 18947 ng/g and 18145 ng/g and 12879 ng/g and 13519 ng/g and 18953 ng/g and 18638 ng/g. This compound also had a concentration at 4 h in series [3] (male, Sprague-Dawley, rat, eye balls, topical, CNS-101 concentrations in eye balls, mean ± SD, 4 × 5 ml 5% CNS-101, measured after 4 hrs) of 16600 ng/g. Further, in series [3] (male, Sprague-Dawley, rat, eye balls, topical, CNS-101 concentrations in eye balls, mean ± SD, 8 × 5 ml 5% CNS-101, measured after 8 hrs), the concentration at 8 h came out at 16800 ng/g. Besides, the R/L in series [3] (4 doses, 4 h) was 0.4357 and 0.2213 and 0.3901; in series [3] (8 doses, 8 h), 0.1996 and 0.1209 and 0.1949. For the same compound, the “4 h ispi AVE” value in series [3] (treated eye, 4 doses, group average of Table 7 means (ng/g there), in ng/g) is 16625.67. In addition, in series [3] (setting [13]), the “8 h ispi AVE” value is reported as 16846.83. In addition, the “HSP70 expression in eye balls, mean ± SD” value with HSP70 [4] (topical ocular 5% CNS-101, 4 hours) is 50.7 ± 8.01 pg/mg protein; with HSP70 [4] (topical ocular 5% CNS-101, 8 hours), 55.9 ± 11.2 pg/mg protein; in the series with HSP70 [4] (topical ocular 5% CNS-101, 24 hours) it was 50.5 ± 10.8 pg/mg protein.

Regarding `CC(=O)CCC=C(C)CC/C=C(\C)CC/C=C(\C)CCC=C(C)C` (mixture of isomers) [GGA, Geranylgeranyl acetone], the “levels of geranylgeranyl acetone achieved intraocularly, topical vs oral” value in series [5] is listed as “about 5 fold”. Further, in series [1] (eye drop), the “delivery into the retina and the eyeball” value is recorded as “effective delivery”.

Consider `CC(=O)CC/C=C(\C)CC/C=C(\C)CC/C=C(\C)CCC=C(C)C` [CNS-102, (5E, 9E, 13E) geranylgeranyl acetone], for which the “Kp(eye ball)” value in series [1] was found to be 0.19. For the same compound, the “Kp(retina)” value in series [1] was 0.79. The “Ratio: compound treated/vehicle treated, Average (AVE)” value in the series with HSP70 [2] was 1.089. In addition, the “Left (compound treated) AVE” value in the series with HSP70 [2] is 681.9337. Besides, in the series on HSP70 [2], the “Ratio treated eye/vehicle treated eye” value is 0.5953 and 1.239 and 1.26 and 1.263. Besides, in the series with HSP70 [2], the HSP70 was 685.1953 pg/mL and 757.1621 pg/mL and 583.588 pg/mL and 701.7893 pg/mL. Also, the “contra/ipsi AVE” value in series [3] (4 doses, 4 h) is given as 0.3052; in series [3] (8 doses, 8 h) it was 0.2617. Besides, in series [3] (setting [6]), the “8 h contra AVE” value is 2105. In addition, the “Mean of Duplicate” value in series [3] (setting [7]) is 30309 ng/g and 21828 ng/g and 17344 ng/g; in series [3] (setting [8]), 10746 ng/g and 8395 ng/g and 7168.5 ng/g; in series [3] (setting [11]), 4447 ng/g and 5672 ng/g and 11663.5 ng/g; in series [3] (setting [12]), 1229 ng/g and 1903.5 ng/g and 3182.5 ng/g. Also, the “Concentration” value was 32854 ng/g and 27764 ng/g and 21506 ng/g and 22150 ng/g and 17494 ng/g and 17194 ng/g in series [3] (setting [9]); 12094 ng/g and 9398 ng/g and 8505 ng/g and 8285 ng/g and 7547 ng/g and 6790 ng/g in series [3] (setting [10]). The concentration at 4 h amounted to 7260 ng/g in series [3] (male, Sprague-Dawley, rat, eye ball (contralateral eye), topical, 0.25 mg/eye, contralateral eye, 4 doses, group average of Table 7 means (ng/g there), read-out: 4 h contra AVE) and 23200 ng/g in series [3] (male, Sprague-Dawley, rat, eye ball (treated, ipsilateral eye), topical, 0.25 mg/eye, treated eye, 4 doses, group average of Table 7 means (ng/g there), read-out: 4 h ispi AVE). In addition, the R/L is 0.3848 and 0.2037 and 0.327 in series [3] (4 doses, 4 h); 0.1144 and 0.2267 and 0.444 in series [3] (8 doses, 8 h). Also, the “8 h ispi AVE” value in series [3] (setting [13]) is recorded as 8769.833.

The record behind these values is patent US20130245126A1, “GERANYLGERANYLACETONE FORMULATIONS AND RETINAL DELIVERY THEREOF” (COYOTE PHARMACEUTICALS, INC., priority 2012, published 2013).
